In ChEMBL document CHEMBL2086269, “Identification of new snake venom metalloproteinase inhibitors using compound screening and rational Peptide design” (ACS Med Chem Lett, 2012):
Counter-ions that a name gives are not always drawn. Calls of active or inactive are those of the source. The calls are words filed in the database; no cut-off is given here. Residues, ends and D or L forms follow the SMILES beside them. *: point of attachment. NHOH = ON*

How the values were obtained:
[1] = target: T1, Snake venom metalloproteinase BaP1 (Bothrops asper, UniProt P83512); assay: Inhibition of snake venom BaP1 using Abz-Ala-Gly-Leu-Ala-Nba as substrate incubated for 30 mins prior to substrate addition by fluorescence spectrophotometry
T1 sequence (P83512 whole entry): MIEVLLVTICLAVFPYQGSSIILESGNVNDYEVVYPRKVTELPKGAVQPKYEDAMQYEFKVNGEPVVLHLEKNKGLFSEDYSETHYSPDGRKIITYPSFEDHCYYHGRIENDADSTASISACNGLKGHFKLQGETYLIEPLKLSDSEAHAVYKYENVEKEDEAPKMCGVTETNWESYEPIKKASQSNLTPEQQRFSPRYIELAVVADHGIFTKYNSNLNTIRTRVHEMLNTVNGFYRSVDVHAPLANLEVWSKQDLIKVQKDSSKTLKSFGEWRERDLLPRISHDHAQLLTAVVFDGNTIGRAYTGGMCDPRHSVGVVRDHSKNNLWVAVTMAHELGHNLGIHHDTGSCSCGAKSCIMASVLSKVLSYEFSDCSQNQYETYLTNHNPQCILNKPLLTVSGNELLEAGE

[2] = Displacement of PAC1 from Zn2+ incubated for 30 mins prior to PAC1 addition measured after 30 mins by spectrophotometry

Row | Compound | IC50 [1] [µM] | Activity [2]
1 | CC(C)C[C@H](NC(=O)[C@@H](N)Cc1c[nH]c2ccccc12)C(=O)N[C@@H](CCCNC(=N)N)C(=O)NO | 217 | –
2 | CC(C)C[C@H](NC(=O)[C@@H](N)Cc1ccccc1)C(=O)N[C@@H](CCCNC(=N)N)C(=O)NO (H-Phe-Leu-Arg-{NHOH}) | 4.6 | Active
3 | CC(C)C[C@H](NC(=O)[C@@H](N)Cc1ccccc1)C(=O)N[C@@H](Cc1cnc[nH]1)C(=O)NO (H-Phe-Leu-His-{NHOH}) | 108 | –
4 | CC(C)C[C@H](NC(=O)[C@@H](N)Cc1ccccc1)C(=O)N[C@@H](Cc1ccccc1)C(N)=O (H-Phe-Leu-Phe-NH2) | 825 | –
5 | CC(C)C[C@H](NC(=O)[C@@H](N)Cc1ccccc1)C(=O)N[C@@H](Cc1ccccc1)C(=O)NO (H-Phe-Leu-Phe-{NHOH}) | 0.5 | Active
6 | CC(C)C[C@H](NC(=O)[C@@H](N)Cc1ccccc1)C(=O)N[C@@H](Cc1ccc(O)cc1)C(N)=O (H-Phe-Leu-Tyr-NH2) | > 1000 | –
7 | CC(C)C[C@H](NC(=O)[C@@H](N)Cc1ccccc1)C(=O)N[C@@H](Cc1ccc(O)cc1)C(=O)NO (H-Phe-Leu-Tyr-{NHOH}) | 30.9 | –
8 | CC(C)C[C@H](NC(=O)[C@@H](N)Cc1c[nH]c2ccccc12)C(=O)N[C@@H](Cc1cnc[nH]1)C(=O)NO (H-Trp-Leu-His-{NHOH}) | 58.4 | –
9 | CC(C)C[C@H](NC(=O)[C@@H](N)Cc1c[nH]c2ccccc12)C(=O)N[C@@H](Cc1ccccc1)C(N)=O (H-Trp-Leu-Phe-NH2) | > 1000 | –
10 | CC(C)C[C@H](NC(=O)[C@@H](N)Cc1c[nH]c2ccccc12)C(=O)N[C@@H](Cc1ccccc1)C(=O)NO (H-Trp-Leu-Phe-{NHOH}) | 34.2 | –
11 | CC(C)C[C@H](NC(=O)[C@@H](N)Cc1c[nH]c2ccccc12)C(=O)N[C@@H](Cc1ccc(O)cc1)C(N)=O (H-Trp-Leu-Tyr-NH2) | 402 | –
12 | CC(C)C[C@H](NC(=O)[C@@H](N)Cc1c[nH]c2ccccc12)C(=O)N[C@@H](Cc1ccc(O)cc1)C(=O)NO (H-Trp-Leu-Tyr-{NHOH}) | 46.2 | –
13 | CNC(=O)[C@H](Cc1ccccc1)NC(=O)[C@H](CC(C)C)[C@H](CSc1cccs1)C(=O)NO [BATIMASTAT] | 1.2 | –
14 | COc1ccc2c3c([nH]c2c1)C(C)=NCC3 [HARMALINE HYDROCHLORIDE DIHYDRATE] | 70.4 | –
15 | NC(=O)N/N=C/c1ccc([N+](=O)[O-])o1 [NITROFURAZONE] | 88.1 | –
16 | COc1cc2c(cc1OC)-c1cc3ccc(OC)c(OC)c3c[n+]1CC2 [PALMATINE CHLORIDE] | 93.3 | –
17 | Nc1ccc(/N=N/c2ccccc2)c(N)n1 [PHENAZOPYRIDINE HYDROCHLORIDE] | 54.3 | –
